“And” between values parts separate entries of the source, which are not always exact repeats. Identical values can stand only once. Toxic doses and inconclusive results are not listed.
Test system: L1210 leukemia ip in BDF1 mice, survival T/C
Assay: NCI In Vivo Anticancer Drug Screen. Data for tumor model L1210 Leukemia (intraperitoneal) in B6D2F1 (BDF1) mice
Conditions: higher = longer survival
Procedure, shortened: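 Tumor was transplanted into mice, which were then dosed with test compound or vehicle alone. Survival was recorded for each group, and the treated figure was expressed relative to the control figure.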

[1] = endpoint: mean survival time, dose: 100.0 mg/kg/injection, schedule: Q04DX003 (ip), vehicle: Klucel (hydroxypropylcellulose) (HPC)
[2] = endpoint: mean survival time, dose: 200.0 mg/kg/injection, schedule: Q04DX003 (ip), vehicle: Klucel (hydroxypropylcellulose) (HPC)
[3] = endpoint: mean survival time, dose: 400.0 mg/kg/injection, schedule: Q04DX003 (ip), vehicle: Klucel (hydroxypropylcellulose) (HPC)
[4] = endpoint: mean survival time, dose: 50.0 mg/kg/injection, schedule: Q01DX001 (ip), vehicle: carboxymethylcellulose (CMC)
[5] = endpoint: mean survival time, dose: 100.0 mg/kg/injection, schedule: Q01DX001 (ip), vehicle: carboxymethylcellulose (CMC)
[6] = endpoint: mean survival time, dose: 200.0 mg/kg/injection, schedule: Q01DX001 (ip), vehicle: carboxymethylcellulose (CMC)
[7] = endpoint: mean survival time, dose: 400.0 mg/kg/injection, schedule: Q01DX001 (ip), vehicle: carboxymethylcellulose (CMC)
[8] = endpoint: mean survival time, dose: 100.0 mg/kg/injection, schedule: Q04DX002 (ip), vehicle: Klucel (hydroxypropylcellulose) (HPC)
[9] = endpoint: mean survival time, dose: 200.0 mg/kg/injection, schedule: Q04DX002 (ip), vehicle: Klucel (hydroxypropylcellulose) (HPC)
[10] = endpoint: mean survival time, dose: 100.0 mg/kg/injection, schedule: Q01DX009 (ip), vehicle: saline
[11] = endpoint: mean survival time, dose: 200.0 mg/kg/injection, schedule: Q01DX009 (ip), vehicle: saline
[12] = endpoint: mean survival time, dose: 400.0 mg/kg/injection, schedule: Q01DX009 (ip), vehicle: saline
[13] = endpoint: mean survival time, dose: 100.0 mg/kg/injection, schedule: Q01DX009 (ip), vehicle: Klucel (hydroxypropylcellulose) (HPC)
[14] = endpoint: mean survival time, dose: 200.0 mg/kg/injection, schedule: Q01DX009 (ip), vehicle: Klucel (hydroxypropylcellulose) (HPC)
[15] = endpoint: mean survival time, dose: 400.0 mg/kg/injection, schedule: Q01DX009 (ip), vehicle: Klucel (hydroxypropylcellulose) (HPC)
[16] = endpoint: mean survival time, dose: 10.0 mg/kg/injection, schedule: Q01DX001 (ip), vehicle: saline
[17] = endpoint: mean survival time, dose: 20.0 mg/kg/injection, schedule: Q01DX001 (ip), vehicle: saline
[18] = endpoint: mean survival time, dose: 40.0 mg/kg/injection, schedule: Q01DX001 (ip), vehicle: saline
[19] = endpoint: mean survival time, dose: 100.0 mg/kg/injection, schedule: Q01DX001 (ip), vehicle: saline
[20] = endpoint: mean survival time, dose: 200.0 mg/kg/injection, schedule: Q01DX001 (ip), vehicle: saline
[21] = endpoint: mean survival time, dose: 400.0 mg/kg/injection, schedule: Q01DX001 (ip), vehicle: saline
[22] = endpoint: mean survival time, dose: 75.0 mg/kg/injection, schedule: Q01DX001 (ip), vehicle: saline

## N#CS/C=C\C(=O)O
endpoint: mean survival time, dose: 3.12 mg/kg/injection, schedule: Q01DX001 (ip), vehicle: saline with Tween-80
  T/C: 95 % of control and 101 % of control
endpoint: mean survival time, dose: 3.12 mg/kg/injection, schedule: Q01DX009 (ip), vehicle: saline with Tween-80
  T/C: 93 % of control
endpoint: mean survival time, dose: 3.12 mg/kg/injection, schedule: Q04DX003 (ip), vehicle: saline with Tween-80
  T/C: 107 % of control
endpoint: mean survival time, dose: 6.25 mg/kg/injection, schedule: Q01DX001 (ip), vehicle: saline with Tween-80
  T/C: 95 % of control and 101 % of control
endpoint: mean survival time, dose: 6.25 mg/kg/injection, schedule: Q01DX009 (ip), vehicle: saline with Tween-80
  T/C: 98 % of control and 102 % of control
endpoint: mean survival time, dose: 6.25 mg/kg/injection, schedule: Q04DX003 (ip), vehicle: saline with Tween-80
  T/C: 96 % of control and 100 % of control
endpoint: mean survival time, dose: 12.5 mg/kg/injection, schedule: Q01DX001 (ip), vehicle: saline with Tween-80
  T/C: 94 % of control and 103 % of control and 105 % of control
endpoint: mean survival time, dose: 12.5 mg/kg/injection, schedule: Q01DX009 (ip), vehicle: saline with Tween-80
  T/C: 95 % of control and 102 % of control
endpoint: mean survival time, dose: 12.5 mg/kg/injection, schedule: Q04DX003 (ip), vehicle: saline with Tween-80
  T/C: 102 % of control and 103 % of control
endpoint: mean survival time, dose: 25.0 mg/kg/injection, schedule: Q01DX001 (ip), vehicle: saline with Tween-80
  T/C: 94 % of control and 103 % of control
endpoint: mean survival time, dose: 25.0 mg/kg/injection, schedule: Q01DX009 (ip), vehicle: saline with Tween-80
  T/C: 100 % of control and 92 % of control
endpoint: mean survival time, dose: 25.0 mg/kg/injection, schedule: Q04DX003 (ip), vehicle: saline with Tween-80
  T/C: 93 % of control and 98 % of control
endpoint: mean survival time, dose: 50.0 mg/kg/injection, schedule: Q01DX001 (ip), vehicle: saline with Tween-80
  T/C: 100 % of control
endpoint: mean survival time, dose: 50.0 mg/kg/injection, schedule: Q04DX003 (ip), vehicle: saline with Tween-80
  T/C: 97 % of control

## CCCCOCCOP(=O)(OCCOCCCC)OCCOCCCC
[1]
  T/C: 98 % of control
[2]
  T/C: 98 % of control
[3]
  T/C: 101 % of control

## OCCCc1cc(Cl)ccc1O
[4]
  T/C: 100 % of control
[5]
  T/C: 100 % of control
[6]
  T/C: 94 % of control
[7]
  T/C: 92 % of control

## O=C(O)COc1ccc(Cl)cc1I
[8]
  T/C: 120 % of control
[9]
  T/C: 97 % of control

## CC(=O)N1C=Cc2ccccc2C1C1c2ccccc2C=CN1C(C)=O (stereo not given)
[1]
  T/C: 98 % of control
[2]
  T/C: 96 % of control
[3]
  T/C: 93 % of control

## OCCOCC#CCOCCO
[10]
  T/C: 102 % of control
[11]
  T/C: 96 % of control
[12]
  T/C: 98 % of control

## CCOC(=O)NC(C)(C)CC(C)(C)C
[13]
  T/C: 101 % of control
[1]
  T/C: 108 % of control
[14]
  T/C: 98 % of control
[2]
  T/C: 94 % of control
[15]
  T/C: 103 % of control
[3]
  T/C: 97 % of control

## CCCCN(C)N=Nc1n[nH]nc1C(N)=O
endpoint: mean survival time, dose: 25.0 mg/kg/injection, schedule: Q01DX Z (ip), vehicle: carboxymethylcellulose (CMC)
  T/C: 118 % of control
endpoint: mean survival time, dose: 50.0 mg/kg/injection, schedule: Q01DX Z (ip), vehicle: carboxymethylcellulose (CMC)
  T/C: 113 % of control
endpoint: mean survival time, dose: 250.0 mg/kg/injection, schedule: Q01DX001 (ip), vehicle: carboxymethylcellulose (CMC)
  T/C: 123 % of control

## CCOC(=O)c1ccc(NC(=O)N(CCCl)N=O)cc1
endpoint: mean survival time, dose: 9.0 mg/kg/injection, schedule: Q01DX001 (ip), vehicle: carboxymethylcellulose (CMC)
  T/C: 215 % of control
endpoint: mean survival time, dose: 18.7 mg/kg/injection, schedule: Q01DX001 (ip), vehicle: carboxymethylcellulose (CMC)
  T/C: 157 % of control

## NC(=S)Nc1ccccc1
endpoint: mean survival time, dose: 5.0 mg/kg/injection, schedule: Q01DX001 (ip), vehicle: saline
  T/C: 100 % of control
[16]
  T/C: 96 % of control
[17]
  T/C: 102 % of control
[18]
  T/C: 101 % of control
endpoint: mean survival time, dose: 80.0 mg/kg/injection, schedule: Q01DX001 (ip), vehicle: saline
  T/C: 97 % of control

## CCOC(=O)COc1ccc(N2C(N)=NC(N)=NC2(C)C)cc1
[19]
  T/C: 107 % of control
[10]
  T/C: 117 % of control
[20]
  T/C: 102 % of control
[11]
  T/C: 98 % of control
[21]
  T/C: 97 % of control
[12]
  T/C: 104 % of control

## CC1(C)CN(CCC#N)C(c2ccc([N+](=O)[O-])cc2)O1 (stereo not given)
[4]
  T/C: 106 % of control
[5]
  T/C: 106 % of control
[6]
  T/C: 114 % of control
[7]
  T/C: 108 % of control

## CCCCCCCCCCCCCCCCS(=O)(=O)N/N=C/c1ccccc1O
[5]
  T/C: 95 % of control
[6]
  T/C: 98 % of control

## O=C(COc1ccc(Cl)cc1Cl)Nc1ccc2ccccc2c1S(=O)(=O)O
endpoint: mean survival time, dose: 25.0 mg/kg/injection, schedule: Q04DX002 (ip), vehicle: Klucel (hydroxypropylcellulose) (HPC)
  T/C: 112 % of control
endpoint: mean survival time, dose: 50.0 mg/kg/injection, schedule: Q04DX002 (ip), vehicle: Klucel (hydroxypropylcellulose) (HPC)
  T/C: 98 % of control
[8]
  T/C: 94 % of control

## CCCCCCC[n+]1ccc(C#N)cc1
[22]
  T/C: 103 % of control

## CCCCCCCCCCCCCCCCCC(=O)NN=C1CCCC1
[13]
  T/C: 95 % of control
[14]
  T/C: 93 % of control
[15]
  T/C: 107 % of control

## O=C(CCCC(=O)NNC(=O)Nc1ccc(Cl)cc1)NNC(=O)Nc1ccc(Cl)cc1
endpoint: mean survival time, dose: 50.0 mg/kg/injection, schedule: Q01DX001 (ip), vehicle: saline
  T/C: 93 % of control
[19]
  T/C: 96 % of control
[20]
  T/C: 100 % of control
[21]
  T/C: 100 % of control

## O=C(NNC(=O)OCc1ccccc1)OCc1ccccc1
[13]
  T/C: 104 % of control
[1]
  T/C: 97 % of control
[14]
  T/C: 113 % of control
[2]
  T/C: 97 % of control
[3]
  T/C: 97 % of control

## O=C(Nc1ccc(-c2nc3nc[nH]c(=O)c3[nH]2)cc1)c1cccc(S(=O)(=O)F)c1
endpoint: mean survival time, dose: 100.0 mg/kg/injection, schedule: Q01DX001 (ip), vehicle: saline with Tween-80
  T/C: 96 % of control
endpoint: mean survival time, dose: 200.0 mg/kg/injection, schedule: Q01DX001 (ip), vehicle: saline with Tween-80
  T/C: 96 % of control
endpoint: mean survival time, dose: 400.0 mg/kg/injection, schedule: Q01DX001 (ip), vehicle: saline with Tween-80
  T/C: 92 % of control

## Cc1nc(N)[nH]c(=O)c1CCCN=Cc1ccccc1
[13]
  T/C: 101 % of control
[14]
  T/C: 92 % of control
[15]
  T/C: 95 % of control

## CCOc1cc[n+](C)c2ccc(C)cc12
endpoint: mean survival time, dose: 6.25 mg/kg/injection, schedule: Q04DX002 (ip), vehicle: saline with Tween-80
  T/C: 102 % of control
endpoint: mean survival time, dose: 12.5 mg/kg/injection, schedule: Q04DX002 (ip), vehicle: saline with Tween-80
  T/C: 98 % of control

## NC1CCCCC1.[O]=[Cr](=[O])([OH])[OH]
endpoint: mean survival time, dose: 12.5 mg/kg/injection, schedule: Q01DX009 (ip), vehicle: saline sonified
  T/C: 100 % of control
endpoint: mean survival time, dose: 25.0 mg/kg/injection, schedule: Q01DX009 (ip), vehicle: saline sonified
  T/C: 109 % of control
endpoint: mean survival time, dose: 50.0 mg/kg/injection, schedule: Q04DX003 (ip), vehicle: Klucel (hydroxypropylcellulose) (HPC)
  T/C: 102 % of control
[22]
  T/C: 98 % of control

## O=c1oc2ccc3ccccc3c2cc1-c1nc2ccccc2[nH]1
[8]
  T/C: 95 % of control
[9]
  T/C: 91 % of control
endpoint: mean survival time, dose: 400.0 mg/kg/injection, schedule: Q04DX002 (ip), vehicle: Klucel (hydroxypropylcellulose) (HPC)
  T/C: 110 % of control

## CCCCCCCCCCCCCCCCCCCCCC(=O)Nc1ccn(C2OC(CO)C(O)C2O)c(=O)n1 (stereo not given)
endpoint: median survival time, dose: 25.0 mg/kg/injection, schedule: Q01DX009 (ip), vehicle: saline with Tween-80
  T/C: 217 % of control
endpoint: median survival time, dose: 50.0 mg/kg/injection, schedule: Q01DX009 (ip), vehicle: saline with Tween-80
  T/C: 234 % of control
endpoint: median survival time, dose: 100.0 mg/kg/injection, schedule: Q01DX009 (ip), vehicle: saline with Tween-80
  T/C: 234 % of control
endpoint: median survival time, dose: 200.0 mg/kg/injection, schedule: Q01DX009 (ip), vehicle: saline with Tween-80
  T/C: 382 % of control
endpoint: median survival time, dose: 400.0 mg/kg/injection, schedule: Q01DX009 (ip), vehicle: saline with Tween-80
  T/C: 340 % of control

## CCCCOc1ccc(/C=N/NC(=O)Nc2ccccc2)cc1
endpoint: mean survival time, dose: 25.0 mg/kg/injection, schedule: Q01DX009 (ip), vehicle: Klucel (hydroxypropylcellulose) (HPC)
  T/C: 95 % of control
endpoint: mean survival time, dose: 50.0 mg/kg/injection, schedule: Q01DX009 (ip), vehicle: Klucel (hydroxypropylcellulose) (HPC)
  T/C: 97 % of control
[13]
  T/C: 88 % of control and 90 % of control
[15]
  T/C: 87 % of control

## O=[N+]([O-])c1ccc(/C(=C/c2ccccc2)[n+]2ccccc2)cc1
[16]
  T/C: 106 % of control
[17]
  T/C: 100 % of control
[18]
  T/C: 100 % of control
